Assay results published in US8680062B2, “System for delivering therapeutic agents into living cells and cells nuclei” (Deliversir Ltd., priority 2004, dated 2014).

Columns and labels:
[1] = target: T1, rTh polymerase (Thermus thermophilus, UniProt P52028); assay: PCR polymerase assay of modified nucleotide as substrate in place of dTTP; assay type: biochemical; settings: typical PCR conditions, Taq, Vent, Pfu and rTh polymerases tested
T1 construct: purchased
Text: The modified nucleotides described above were tasted in polymerase assays to determine their compatibility as substrates for polymerase reactions. The modified nucleotide Compound 7 (modified dUTP), served as a substrate in place of deoxythymidinetriphosphate, dTTP, for thermostable DNA polymerases using typical PCR conditions. Commercially available thermostable DNA polymerases from […] were used in the assays: Taq from Thermus aquaticus, Vent from Thermococcus litoralis, Pfu from Pyrococcus furiosus, and rTh from Thennus thennophilus.

[2] = target: DNA polymerase I (Escherichia coli, UniProt P00582); settings: 90 minute time point; 5.4 Kb plasmid, 15° C., 3H-dGTP counting
Sequence of DNA polymerase I (P00582 whole entry): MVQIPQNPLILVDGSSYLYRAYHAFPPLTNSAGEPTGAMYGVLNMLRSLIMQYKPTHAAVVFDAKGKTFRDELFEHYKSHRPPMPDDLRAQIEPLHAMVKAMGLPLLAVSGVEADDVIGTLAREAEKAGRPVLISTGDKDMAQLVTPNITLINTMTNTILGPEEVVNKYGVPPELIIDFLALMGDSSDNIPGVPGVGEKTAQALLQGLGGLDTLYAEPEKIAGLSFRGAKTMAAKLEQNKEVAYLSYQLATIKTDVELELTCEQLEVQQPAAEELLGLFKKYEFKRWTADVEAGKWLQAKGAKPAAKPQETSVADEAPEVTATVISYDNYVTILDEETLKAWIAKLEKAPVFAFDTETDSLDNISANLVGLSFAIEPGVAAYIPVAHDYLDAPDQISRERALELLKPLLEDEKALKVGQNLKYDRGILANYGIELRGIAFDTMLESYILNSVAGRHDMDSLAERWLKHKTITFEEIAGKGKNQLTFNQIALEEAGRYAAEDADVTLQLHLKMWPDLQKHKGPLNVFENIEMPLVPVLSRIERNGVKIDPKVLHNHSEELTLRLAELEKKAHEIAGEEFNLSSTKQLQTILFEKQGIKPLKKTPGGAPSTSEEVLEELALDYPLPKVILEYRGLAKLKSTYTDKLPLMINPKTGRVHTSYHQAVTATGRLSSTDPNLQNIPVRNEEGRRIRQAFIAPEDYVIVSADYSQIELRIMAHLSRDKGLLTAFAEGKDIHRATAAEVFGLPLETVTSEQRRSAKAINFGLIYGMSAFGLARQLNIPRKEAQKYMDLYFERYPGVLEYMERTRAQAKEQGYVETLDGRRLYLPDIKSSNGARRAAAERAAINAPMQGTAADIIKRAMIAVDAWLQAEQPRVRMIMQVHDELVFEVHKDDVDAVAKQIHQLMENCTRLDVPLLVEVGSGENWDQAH
Protocol: At each time point of interest, 2 μl from the reaction mixture were withdrawn, spotted on glass fiber filters (GF/C), washed once with 10% trichloroacetic acid (TCA) and twice with 5% TCA, and with alcohol and was thereafter dried. The filters were loaded to a liquid scintillation counter for measurements of the progression of the polymerase reaction and the relative level of incorporation.

T1 sequence (P52028 whole entry): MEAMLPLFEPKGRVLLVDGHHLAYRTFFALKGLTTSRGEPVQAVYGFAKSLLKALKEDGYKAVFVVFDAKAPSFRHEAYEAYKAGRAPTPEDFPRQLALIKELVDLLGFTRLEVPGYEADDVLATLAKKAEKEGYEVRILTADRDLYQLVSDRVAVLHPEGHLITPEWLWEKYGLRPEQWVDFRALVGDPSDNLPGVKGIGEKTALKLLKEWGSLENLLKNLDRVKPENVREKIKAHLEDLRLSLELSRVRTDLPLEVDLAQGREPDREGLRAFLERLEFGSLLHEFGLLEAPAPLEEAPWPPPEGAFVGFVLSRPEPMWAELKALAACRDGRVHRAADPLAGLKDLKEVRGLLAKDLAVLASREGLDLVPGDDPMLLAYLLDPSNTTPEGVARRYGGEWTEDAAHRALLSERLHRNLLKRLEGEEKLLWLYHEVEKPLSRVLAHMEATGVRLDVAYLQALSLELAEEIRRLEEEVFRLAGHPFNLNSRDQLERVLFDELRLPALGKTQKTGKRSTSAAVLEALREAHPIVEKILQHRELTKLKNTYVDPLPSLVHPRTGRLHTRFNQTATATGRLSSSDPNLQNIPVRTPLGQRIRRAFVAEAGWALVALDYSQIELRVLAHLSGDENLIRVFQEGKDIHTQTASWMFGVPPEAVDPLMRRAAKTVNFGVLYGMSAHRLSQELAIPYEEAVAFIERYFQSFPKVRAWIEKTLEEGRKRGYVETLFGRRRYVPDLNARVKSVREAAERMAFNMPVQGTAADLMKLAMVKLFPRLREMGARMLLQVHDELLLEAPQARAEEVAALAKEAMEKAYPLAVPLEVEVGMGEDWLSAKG

Compound	incorporation into PCR product as polymerase substrate [1]	relative levels of incorporation of the modified deoxynucleotides [2] [%]
NC/C=C/c1cn(C2CC(O)C(COP(=O)(O)OP(=O)(O)OP(=O)(O)O)O2)c(=O)[nH]c1=O (stereo not shown) [Compound 7, 5′-triphosphate-5-(3-aminopropen-1-yl)deoxyuridine]	incorporation into a 561 base pair product only with rTh polymerase	
NCCCCCCNc1ncnc2c1ncn2[C@H]1C[C@H](O)[C@@H](COP(=O)(O)OP(=O)(O)OP(=O)(O)O)O1 [N^6-aminohexyl dATP, reference compound]		70
urocanic acid modified dUTP [Compound 8]		54
urocanic acid modified dCTP [Compound 11]		44
